{"source": "ChEMBL document CHEMBL1149958", "about": "“Conformationally restricted piperidinyl benzamides as 5-HT3 receptor antagonists” (Bioorg Med Chem Lett, 1992)", "key": {"[1]": {"assay": "pKA value was determined", "type": "physicochemical"}, "[2]": {"system": "Rattus norvegicus", "assay": "Antagonist potency towards serotonin 5-HT3 receptor was determined by inhibition of 5-HT induced bradycardia (Bezold-Jarisch reflex) in anaesthetized rat", "type": "functional", "settings": "for ED50: Rattus norvegicus, read-out: ID50 (the source's name)"}}, "data": [{"smiles": "COc1cc(N)c(Cl)cc1C(=O)NC1CCN2C(C)CCCC2C1", "note": "(stereo unspecified) [BRL-20627]", "values": [{"measurement": "pKa", "setting": "[1]", "value": 9.2}, {"measurement": "ED50", "setting": "[2]", "value": 0.225, "unit": "mg/kg"}]}, {"smiles": "CCN(CC)CCNC(=O)c1cc(Cl)c(N)cc1OC", "note": "[METOCLOPRAMIDE]", "values": [{"measurement": "ED50", "setting": "[2]", "value": 0.5, "unit": "mg/kg"}]}, {"smiles": "COc1cc(N)c(Cl)cc1C(=O)NC1CCN2CCOCC2C1", "note": "(stereo unspecified)", "values": [{"measurement": "pKa", "setting": "[1]", "value": 6.3}, {"measurement": "ED50", "setting": "[2]", "value": 0.017, "unit": "mg/kg"}]}, {"smiles": "COc1cc(N)c(Cl)cc1C(=O)NC1CCN2CCCC2C1", "note": "(stereo in doubt; 4a)", "values": [{"measurement": "ID50", "setting": "[2]", "value": ">1", "unit": "mg/kg"}]}, {"smiles": "COc1cc(N)c(Cl)cc1C(=O)NC1CC(C)N2CCCC2C1", "note": "(stereo unspecified)", "values": [{"measurement": "ED50", "setting": "[2]", "value": 0.29, "unit": "mg/kg"}]}, {"smiles": "COc1cc(N)c(Cl)cc1C(=O)NC1CCN2CCCC2C1", "note": "(stereo in doubt; 4b)", "values": [{"measurement": "ID50", "setting": "[2]", "value": 0.024, "unit": "mg/kg"}]}, {"smiles": "CN1[C@@H]2CC[C@H]1C[C@@H](OC(=O)c1c[nH]c3ccccc13)C2", "note": "[TROPISETRON]", "values": [{"measurement": "ED50", "setting": "[2]", "value": 0.0014, "unit": "mg/kg"}]}, {"smiles": "COc1cc(N)c(Cl)cc1C(=O)NC1CCN2C(C)COCC2C1", "note": "(stereo unspecified)", "values": [{"measurement": "ED50", "setting": "[2]", "value": 0.0095, "unit": "mg/kg"}]}, {"smiles": "COc1cc(N)c(Cl)cc1C(=O)NC1CCN2C(C)CCC2C1", "note": "(stereo unspecified)", "values": [{"measurement": "ED50", "setting": "[2]", "value": 0.012, "unit": "mg/kg"}]}]}
